We go through 3 molecules from ChEMBL document CHEMBL1201862, “PubChem BioAssay data set” (2004).

Structures are written as SMILES. The source made the active and inactive calls.

The subject of test [1] is HEK293. Kind of test: HEK cell cytotoxicity by LDH release, dose response, cytotoxicity control for IDE activator project, fluorescence, HEK cells (AID 588440).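 Further: cytotoxicity by LDH release measuring loss of membrane integrity.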 It counts as functional, cell-based. The conditions noted are these: Homo sapiens.
For the next test, the target named is Large T antigen (Simian virus 40, UniProt P03070). It is filed as functional, Betapolyomavirus macacae.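 Further: Confirmatory-stage PubChem screen for compounds that inhibit SV40 T antigen.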
The target in the next test is Nonstructural protein 1 (Influenza A virus, UniProt Q194T2). It counts as functional, Influenza A virus (A/California/07/2009(H1N1)).
Test [2] addresses Ras and Rab interactor 1/Tyrosine-protein kinase ABL1 (Homo sapiens, UniProt P00519+Q13671). It is filed as functional.
In test [3] the target is Voltage-gated N-type calcium channel alpha-1B subunit/Amyloid beta A4 precursor protein-binding family A member 1 (Homo sapiens, UniProt Q00975+Q02410). It is filed as protein assay.
For test [4], the system named is HEK293. As to the kind of experiment: optical interference in Abeta FP readout, dose response, artefact control for IDE activator project, biochemical, fluorescence polarization (AID 588442). It is filed as functional, cell-based. The conditions noted are these: Homo sapiens. (Fluorescence polarisation rises when a labelled molecule tumbles more slowly, as on binding a larger partner.)

Test [5] addresses T1, Sentrin-specific protease 6 (Homo sapiens, UniProt Q9GZR1).
T1 sequence (Q9GZR1 whole entry): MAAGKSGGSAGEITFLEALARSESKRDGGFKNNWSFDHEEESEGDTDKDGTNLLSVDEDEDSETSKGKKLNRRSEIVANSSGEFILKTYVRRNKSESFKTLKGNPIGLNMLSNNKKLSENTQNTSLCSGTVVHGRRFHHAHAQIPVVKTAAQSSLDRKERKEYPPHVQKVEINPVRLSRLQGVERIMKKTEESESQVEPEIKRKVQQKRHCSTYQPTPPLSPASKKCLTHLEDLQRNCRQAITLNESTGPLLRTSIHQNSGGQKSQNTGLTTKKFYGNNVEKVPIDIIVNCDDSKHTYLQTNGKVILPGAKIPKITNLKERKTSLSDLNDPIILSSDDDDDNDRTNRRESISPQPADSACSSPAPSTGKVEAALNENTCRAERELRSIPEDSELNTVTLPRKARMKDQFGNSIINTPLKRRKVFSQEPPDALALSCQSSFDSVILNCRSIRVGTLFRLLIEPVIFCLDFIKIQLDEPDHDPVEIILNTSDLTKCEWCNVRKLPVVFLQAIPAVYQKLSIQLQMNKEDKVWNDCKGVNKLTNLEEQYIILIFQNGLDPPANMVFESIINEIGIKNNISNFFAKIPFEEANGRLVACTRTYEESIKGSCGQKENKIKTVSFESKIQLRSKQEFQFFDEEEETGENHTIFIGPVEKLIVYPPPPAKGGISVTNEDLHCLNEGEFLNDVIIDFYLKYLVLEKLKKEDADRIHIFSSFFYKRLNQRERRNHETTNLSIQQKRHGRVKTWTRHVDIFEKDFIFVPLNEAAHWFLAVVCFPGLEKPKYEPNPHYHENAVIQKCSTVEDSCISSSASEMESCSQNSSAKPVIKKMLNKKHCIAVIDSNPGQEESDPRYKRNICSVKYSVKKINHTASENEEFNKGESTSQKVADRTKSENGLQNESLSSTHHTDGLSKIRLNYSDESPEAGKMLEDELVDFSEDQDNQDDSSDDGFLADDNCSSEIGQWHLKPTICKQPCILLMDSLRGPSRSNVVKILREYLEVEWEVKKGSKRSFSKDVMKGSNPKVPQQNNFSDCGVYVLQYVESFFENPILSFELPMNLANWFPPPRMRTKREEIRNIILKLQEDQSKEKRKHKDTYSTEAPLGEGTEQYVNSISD
It counts as functional.

Test [6] deals with T2, Bcl-2-related protein A1 (Mus musculus, UniProt Q07440).
T2 sequence (Q07440 whole entry): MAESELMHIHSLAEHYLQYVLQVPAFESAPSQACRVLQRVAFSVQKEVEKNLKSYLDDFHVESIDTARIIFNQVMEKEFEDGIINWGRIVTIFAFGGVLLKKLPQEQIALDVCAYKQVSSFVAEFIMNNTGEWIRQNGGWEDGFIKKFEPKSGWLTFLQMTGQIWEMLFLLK
As to the kind of experiment: Bfl-1 inhibitors blocking BH3 peptide binding, confirmation, biochemical, TR-FRET, mouse Bfl-1 (AID 621).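 Further: TR-FRET binding of GST-Bfl-1 to FITC-labelled Bid peptide via terbium antibody.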 In general terms: In TR-FRET formats the signal depends on donor and acceptor labels being close together.

The target in test [7] is T2, Bcl-2-related protein A1. Kind of test: Bfl-1 inhibitors, primary screen, biochemical, fluorescence polarization, FITC-Bid, mouse (AID 432).
Test [8] has as its target T3, Sentrin-specific protease 8 (Homo sapiens, UniProt Q96LD8).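 Further: luminescence read-out of SENP8 inhibition, dose-response confirmation following an ultra-high-throughput screen.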
T3 sequence (Q96LD8 whole entry): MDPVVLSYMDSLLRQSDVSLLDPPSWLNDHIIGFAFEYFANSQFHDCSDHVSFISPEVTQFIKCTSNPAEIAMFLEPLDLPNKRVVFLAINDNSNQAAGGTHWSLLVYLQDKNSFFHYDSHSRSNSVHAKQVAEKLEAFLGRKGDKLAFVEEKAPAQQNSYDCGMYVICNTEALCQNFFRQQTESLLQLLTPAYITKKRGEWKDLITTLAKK
It is filed as functional.

Test [9] addresses 5-hydroxytryptamine receptor 5A (Homo sapiens, UniProt P47898). As to the kind of experiment: Counterscreen for agonists of OPRM1-OPRD1 heterodimerization: luminescence-based cell-based high throughput dose response assay to identify agonists of 5-hydroxytryptamine (serotonin) 5A receptor (HTR5A). [Related pubchem assays (depositor defined):AID504326, AID504355, AID504692, AID504904, AID504905]. It is filed as functional.

Chain of Voltage-gated N-type calcium channel alpha-1B subunit/Amyloid beta A4 precursor protein-binding family A member 1 (Q00975 whole entry): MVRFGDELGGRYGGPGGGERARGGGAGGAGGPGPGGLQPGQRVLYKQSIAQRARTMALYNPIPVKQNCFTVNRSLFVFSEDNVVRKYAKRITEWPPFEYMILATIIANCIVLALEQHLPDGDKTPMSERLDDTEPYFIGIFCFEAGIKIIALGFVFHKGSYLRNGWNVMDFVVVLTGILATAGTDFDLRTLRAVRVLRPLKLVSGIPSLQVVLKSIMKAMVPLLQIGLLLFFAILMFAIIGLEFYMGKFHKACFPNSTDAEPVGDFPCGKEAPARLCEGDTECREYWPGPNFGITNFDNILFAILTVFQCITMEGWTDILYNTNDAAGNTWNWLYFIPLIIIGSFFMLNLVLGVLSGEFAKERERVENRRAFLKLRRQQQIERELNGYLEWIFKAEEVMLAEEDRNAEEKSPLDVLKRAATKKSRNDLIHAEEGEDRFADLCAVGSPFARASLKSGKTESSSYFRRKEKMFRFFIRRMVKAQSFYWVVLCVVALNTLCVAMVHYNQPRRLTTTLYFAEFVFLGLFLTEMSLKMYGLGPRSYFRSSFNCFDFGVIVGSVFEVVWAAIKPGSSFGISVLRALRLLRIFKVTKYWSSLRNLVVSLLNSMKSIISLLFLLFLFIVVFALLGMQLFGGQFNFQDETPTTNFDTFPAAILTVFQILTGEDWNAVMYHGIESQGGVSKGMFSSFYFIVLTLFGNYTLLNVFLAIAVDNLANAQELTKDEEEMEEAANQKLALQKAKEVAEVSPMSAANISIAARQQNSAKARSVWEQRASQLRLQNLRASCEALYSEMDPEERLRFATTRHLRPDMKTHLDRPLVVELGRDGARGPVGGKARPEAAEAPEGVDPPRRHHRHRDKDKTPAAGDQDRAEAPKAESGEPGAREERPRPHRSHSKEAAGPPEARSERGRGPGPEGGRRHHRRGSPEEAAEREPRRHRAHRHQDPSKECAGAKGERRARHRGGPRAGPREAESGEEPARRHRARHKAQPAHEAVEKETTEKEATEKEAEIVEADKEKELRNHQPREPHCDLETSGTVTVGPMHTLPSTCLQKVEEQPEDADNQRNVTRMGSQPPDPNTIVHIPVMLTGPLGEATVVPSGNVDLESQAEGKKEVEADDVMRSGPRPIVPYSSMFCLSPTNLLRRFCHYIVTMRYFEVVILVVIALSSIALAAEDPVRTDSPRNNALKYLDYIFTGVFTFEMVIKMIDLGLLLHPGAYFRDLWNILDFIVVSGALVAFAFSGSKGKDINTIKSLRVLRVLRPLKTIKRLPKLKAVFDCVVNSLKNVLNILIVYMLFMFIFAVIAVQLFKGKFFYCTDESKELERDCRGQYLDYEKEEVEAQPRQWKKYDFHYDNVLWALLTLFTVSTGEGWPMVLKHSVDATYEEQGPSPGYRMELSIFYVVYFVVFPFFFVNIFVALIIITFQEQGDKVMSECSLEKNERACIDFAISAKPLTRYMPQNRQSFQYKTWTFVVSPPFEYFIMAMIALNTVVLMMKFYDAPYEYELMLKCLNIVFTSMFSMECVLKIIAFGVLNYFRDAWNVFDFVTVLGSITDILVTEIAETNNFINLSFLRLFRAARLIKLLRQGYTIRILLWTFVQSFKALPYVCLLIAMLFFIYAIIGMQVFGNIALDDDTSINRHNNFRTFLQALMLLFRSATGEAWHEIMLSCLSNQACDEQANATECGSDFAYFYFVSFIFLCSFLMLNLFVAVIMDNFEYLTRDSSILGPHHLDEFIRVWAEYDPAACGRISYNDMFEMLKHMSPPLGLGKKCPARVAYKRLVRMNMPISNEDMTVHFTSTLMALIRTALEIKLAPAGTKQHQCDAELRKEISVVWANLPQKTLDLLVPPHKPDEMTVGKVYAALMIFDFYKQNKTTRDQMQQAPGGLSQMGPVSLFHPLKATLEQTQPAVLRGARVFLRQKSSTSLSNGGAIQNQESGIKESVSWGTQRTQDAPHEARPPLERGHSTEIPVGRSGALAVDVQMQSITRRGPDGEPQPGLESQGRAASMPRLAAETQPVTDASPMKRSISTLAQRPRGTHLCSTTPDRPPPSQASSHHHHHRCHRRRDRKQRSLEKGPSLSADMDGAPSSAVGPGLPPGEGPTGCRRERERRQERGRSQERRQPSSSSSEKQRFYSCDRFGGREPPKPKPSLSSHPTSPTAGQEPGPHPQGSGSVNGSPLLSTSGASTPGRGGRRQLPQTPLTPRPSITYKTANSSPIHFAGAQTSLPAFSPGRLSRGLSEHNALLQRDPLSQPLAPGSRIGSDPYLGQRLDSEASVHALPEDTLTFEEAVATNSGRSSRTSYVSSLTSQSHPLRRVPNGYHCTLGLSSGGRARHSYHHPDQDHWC
Chain of Voltage-gated N-type calcium channel alpha-1B subunit/Amyloid beta A4 precursor protein-binding family A member 1 (Q02410 whole entry): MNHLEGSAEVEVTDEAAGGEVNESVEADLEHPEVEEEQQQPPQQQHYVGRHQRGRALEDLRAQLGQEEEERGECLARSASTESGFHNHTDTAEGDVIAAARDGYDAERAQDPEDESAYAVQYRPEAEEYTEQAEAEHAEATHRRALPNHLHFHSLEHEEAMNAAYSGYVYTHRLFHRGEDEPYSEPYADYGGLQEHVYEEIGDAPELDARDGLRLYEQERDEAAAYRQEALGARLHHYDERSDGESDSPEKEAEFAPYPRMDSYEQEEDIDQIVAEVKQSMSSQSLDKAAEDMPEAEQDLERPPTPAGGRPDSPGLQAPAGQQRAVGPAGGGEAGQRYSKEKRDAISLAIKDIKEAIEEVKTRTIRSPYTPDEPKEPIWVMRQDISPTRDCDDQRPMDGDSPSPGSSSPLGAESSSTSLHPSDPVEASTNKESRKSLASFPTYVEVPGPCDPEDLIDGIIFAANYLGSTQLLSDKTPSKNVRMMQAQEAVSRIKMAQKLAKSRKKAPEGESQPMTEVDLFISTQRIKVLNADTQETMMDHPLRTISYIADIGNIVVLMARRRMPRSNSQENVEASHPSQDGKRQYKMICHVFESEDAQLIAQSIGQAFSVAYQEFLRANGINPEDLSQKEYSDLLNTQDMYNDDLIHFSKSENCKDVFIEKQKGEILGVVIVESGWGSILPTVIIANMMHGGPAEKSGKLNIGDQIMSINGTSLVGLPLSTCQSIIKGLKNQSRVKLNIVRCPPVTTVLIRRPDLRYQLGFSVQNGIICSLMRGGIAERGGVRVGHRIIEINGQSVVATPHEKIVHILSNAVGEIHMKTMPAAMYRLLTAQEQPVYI
Chain of Nonstructural protein 1 (Q194T2 whole entry): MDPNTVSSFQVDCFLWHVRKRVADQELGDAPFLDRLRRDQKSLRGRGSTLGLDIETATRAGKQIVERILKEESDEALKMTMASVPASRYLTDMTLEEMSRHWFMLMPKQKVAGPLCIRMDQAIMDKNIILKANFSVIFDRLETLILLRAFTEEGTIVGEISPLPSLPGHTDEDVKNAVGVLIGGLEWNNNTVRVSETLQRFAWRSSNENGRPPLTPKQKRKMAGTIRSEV
Chain of Large T antigen (P03070 whole entry): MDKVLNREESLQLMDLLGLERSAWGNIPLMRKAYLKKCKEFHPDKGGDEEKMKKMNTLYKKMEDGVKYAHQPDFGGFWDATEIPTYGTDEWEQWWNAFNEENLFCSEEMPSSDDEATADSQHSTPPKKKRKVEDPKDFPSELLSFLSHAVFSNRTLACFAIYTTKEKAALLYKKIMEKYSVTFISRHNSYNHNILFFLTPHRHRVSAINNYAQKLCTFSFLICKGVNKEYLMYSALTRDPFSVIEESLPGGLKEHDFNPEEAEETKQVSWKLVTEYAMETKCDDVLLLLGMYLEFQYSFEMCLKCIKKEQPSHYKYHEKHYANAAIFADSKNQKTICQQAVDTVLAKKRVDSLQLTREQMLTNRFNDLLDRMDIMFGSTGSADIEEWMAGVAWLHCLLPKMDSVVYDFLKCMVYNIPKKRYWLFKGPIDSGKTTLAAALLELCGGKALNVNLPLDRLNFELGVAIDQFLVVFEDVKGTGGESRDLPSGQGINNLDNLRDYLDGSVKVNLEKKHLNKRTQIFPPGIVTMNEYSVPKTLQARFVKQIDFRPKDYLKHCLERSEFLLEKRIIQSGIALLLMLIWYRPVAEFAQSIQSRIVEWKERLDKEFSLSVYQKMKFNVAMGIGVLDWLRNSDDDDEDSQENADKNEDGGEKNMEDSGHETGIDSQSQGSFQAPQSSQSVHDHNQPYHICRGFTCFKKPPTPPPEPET
Chain of 5-hydroxytryptamine receptor 5A (P47898 whole entry): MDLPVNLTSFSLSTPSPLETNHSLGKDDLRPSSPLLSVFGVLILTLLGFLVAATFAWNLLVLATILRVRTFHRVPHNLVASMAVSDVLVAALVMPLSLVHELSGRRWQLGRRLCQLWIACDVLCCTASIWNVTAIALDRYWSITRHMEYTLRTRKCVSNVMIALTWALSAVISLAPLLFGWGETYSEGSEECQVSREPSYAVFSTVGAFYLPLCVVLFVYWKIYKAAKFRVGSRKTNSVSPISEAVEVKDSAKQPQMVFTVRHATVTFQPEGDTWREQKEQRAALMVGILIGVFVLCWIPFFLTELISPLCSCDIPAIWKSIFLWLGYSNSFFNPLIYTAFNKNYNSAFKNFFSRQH

For the molecule `COc1cc(OC)c(-c2c3cc(O)c(=O)cc-3oc3cc(O)c(O)cc23)cc1OC`, the IC50 – broadly, the concentration needed to halve the response being measured – was > 89.2 µM (inactive) with HEK293 [1]; 1.73 µM (active) on Large T antigen; 41.7 µM (active) on Nonstructural protein 1; 0.724 µM (active) in test [2]; 12.5 µM (active) in test [3]. The EC50 (usually the midpoint of the concentration-response curve) in the test with HEK293 [4] was > 6.21 µM (active).
In the case of `Oc1nc(Nc2ccccc2)cc2ccccc12`, the IC50 in test [5] was 0.345 µM (active); on Bcl-2-related protein A1 [6], > 100 µM (not active); at Bcl-2-related protein A1 [7], > 100 µM (not active); in test [8], 0.899 µM (active).
In the case of `CCCCCCCCCCOC(=O)C[n+]1c(COc2ccccc2C)n(C)c2ccccc21`, the EC50 in test [9] was > 92.5 µM (inactive).
